The values that follow are results of earlier work, collected in article PMC8202924, “Emodepside targets SLO-1 channels of Onchocerca ochengi and induces broad anthelmintic effects in a bovine model of onchocerciasis” (PLoS Pathogens, 2021).

For this series, the system named is O. volvulus. The following applies: from ~10 years to 2–3 years; cited from earlier work.

Turning to `C[C@H]1c2cccc(O)c2C(=O)C2=C(O)[C@]3(O)C(=O)C(C(N)=O)=C(O)[C@@H](N(C)C)[C@@H]3[C@@H](O)[C@@H]21` [doxycycline], the “Reduction in worm lifespan” value is on record as 70–80%.
